Like-named read-outs stand apart in the source and are kept apart here. Values belong to the molecule of their own block, whether it stands above or below them.
What was measured:
[1] = 0.1 MPa partial pressure
Method: (§1) In the autoclave experiments the solvent was thoroughly degassed in the autoclave before the gas was charged without stirring. After a short temperature equilibration the pressure and temperature in the autoclave was recorded and then the solvent was stirred until no further pressure drop could be observed. From the known gas volume and pressure drop the amount of dissolved gas was calculated. In the ^1H NMR experiments either the solvent (propanal) or hexamethylbenzene served as an internal standard.

[2] = 0.1 MPa partial pressure, 22 °C; for Xi x 10^4: mol fraction; for Ci: molarity
Method: as §1

[3] = cited from earlier work; for Xi x 10^4: mol fraction; for Ci: molarity
[4] = mol fraction of gas in liquid phase, solvent Tetraglyme containing 7.8 w.% PPh3, 20 °C
[5] = mol fraction, solvent Tetraglyme containing 7.8 w.% PPh3, 100 °C
[6] = molarity of gas in liquid phase, solvent Tetraglyme containing 7.8 w.% PPh3, 20 °C
[7] = molarity, solvent Tetraglyme containing 7.8 w.% PPh3, 100 °C
[8] = solvent 2-Methylbutanal, 30 °C, ref. e
[9] = solvent 2-Methylbutanal, 100 °C, ref. e
[10] = solvent Formaldehyde diethyl acetal, 30 °C, ref. g
[11] = solvent 1-Butyl acetate, 18 °C, ref. l
[12] = solvent 1-Propyl acetate, 18 °C, ref. l
[13] = solvent 2-Ethylhexanol-1, 100 °C, ref. w
[14] = solvent 2-Propyl acetate, 18 °C, ref. l
[15] = solvent Ethyl acetate, 18 °C, ref. l
[16] = solvent Ethylene glycol dimethyl (ether), 100 °C, ref. t
[17] = solvent Methyl acetate, 18 °C, ref. l
[18] = solvent Methyl butanoate, 18 °C, ref. l
[19] = solvent Methyl propanoate, 18 °C, ref. l
[20] = solvent Propionaldehyde, 100 °C, ref. k
[21] = solvent cell prints 'ether' (wrapped line), 100 °C, ref. v

Xi x 10^4 [1, 4]: 1224.0 | Xi x 10^4 [1, 5]: 242.0 | Xi x 10^4 ([1]; mol fraction, solvent Toluene, 20 °C): 246.7 | Xi x 10^4 ([1]; mol fraction, solvent Toluene, 100 °C): 178.0 | Ci [1, 6]: 577.0 mmol/L | Ci [1, 7]: 103.0 mmol/L | Ci ([1]; molarity, solvent Toluene, 20 °C): 220.6 mmol/L | Ci ([1]; molarity, solvent Toluene, 100 °C): 147.7 mmol/L | Xi x 10^4 ([2]; solvent Propanal): 402.0 | Ci ([2]; solvent Propanal): 557.7 mmol/L
Compound: C#C [Acetylene]

Compound: [C-]#[O+] [Carbon monoxide]
Xi x 10^4 [1, 4]: 11.3 | Xi x 10^4 [1, 5]: 34.6 | Ci [1, 6]: 4.9 mmol/L | Ci [1, 7]: 14.2 mmol/L | Xi x 10^4 [3, 8]: 10.96 | Xi x 10^4 [3, 9]: 13.93

Compound: CC [Ethane]
Xi x 10^4 [3, 10]: 214.00 | Ci [3, 10]: 201.89 mmol/L

Compound: C=C [Ethylene]
Xi x 10^4 [1, 4]: 134.0 | Xi x 10^4 [1, 5]: 76.0 | Ci [1, 6]: 60.0 mmol/L | Ci [1, 7]: 32.6 mmol/L | Xi x 10^4 [3, 10]: 185.00 | Ci [3, 10]: 174.53 mmol/L | Xi x 10^4 ([2]; solvent Propanal): 115.0 | Ci ([2]; solvent Propanal): 159.6 mmol/L

Compound: [HH] [Hydrogen]
Xi x 10^4 [1, 4]: 5.1 | Xi x 10^4 [1, 5]: 7.3 | Ci [1, 6]: 2.2 mmol/L | Ci [1, 7]: 3.0 mmol/L | Xi x 10^4 [3, 11]: 4.29 | Xi x 10^4 [3, 12]: 4.15 | Xi x 10^4 [3, 13]: 5.85 | Xi x 10^4 [3, 8]: 8.55 | Xi x 10^4 [3, 9]: 11.45 | Xi x 10^4 [3, 14]: 4.83 | Xi x 10^4 [3, 15]: 3.46 | Xi x 10^4 [3, 16]: 6.20 | Xi x 10^4 [3, 10]: 5.37 | Xi x 10^4 [3, 17]: 2.51 | Xi x 10^4 [3, 18]: 4.67 | Xi x 10^4 [3, 19]: 3.77 | Xi x 10^4 [3, 20]: 5.95 | Xi x 10^4 [3, 21]: 6.58 | Xi x 10^4 ([3]; solvent printed 2-Ethylhexanol-1 (second line), 100 °C, ref. v): 5.97 | Ci [3, 11]: 3.64 mmol/L | Ci [3, 12]: 3.99 mmol/L | Ci [3, 13]: 3.45 mmol/L | Ci [3, 14]: 4.64 mmol/L | Ci [3, 15]: 3.84 mmol/L | Ci [3, 16]: 5.32 mmol/L | Ci [3, 10]: 5.07 mmol/L | Ci [3, 17]: 3.30 mmol/L | Ci [3, 18]: 4.49 mmol/L | Ci [3, 19]: 4.19 mmol/L | Ci [3, 21]: 3.89 mmol/L | Xi x 10^4 ([2]; solvent d^8-Toluene): 3.5

Compound: C [Methane]
Xi x 10^4 [3, 10]: 37.40 | Xi x 10^4 [3, 20]: 20.90

— patent publication EP0804400B1, “HYDROFORMYLATION OF A MULTI-COMPONENT FEED STREAM” (ExxonMobil Research and Engineering Company, priority 1995, dated 1996)
